# Target: T1, recombinant human Estrogen Receptor alpha ligand binding domain, residues 307-554 (ER alpha-LBD (GST)) (Homo sapiens, UniProt P03372)
# T1 construct: made in house
# T1 sequence (P03372 307-554): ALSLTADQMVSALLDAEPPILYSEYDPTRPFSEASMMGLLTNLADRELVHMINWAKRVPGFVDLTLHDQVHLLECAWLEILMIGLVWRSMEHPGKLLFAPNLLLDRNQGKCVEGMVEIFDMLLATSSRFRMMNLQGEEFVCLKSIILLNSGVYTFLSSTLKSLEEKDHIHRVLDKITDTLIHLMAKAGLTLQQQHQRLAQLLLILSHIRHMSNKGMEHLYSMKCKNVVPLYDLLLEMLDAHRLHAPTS
# Assay: ERα binding assay (LanthaScreen TR-FRET competition)
# Conditions: TR-FRET competition with Fluormone ES2 tracer, 4 hours at room temperature; single experiment or average of two or more
row,SMILES,IC50 [nM]
1,"Cc1ncsc1-c1ccc(CNC(=O)[C@@H]2C[C@@H](O)CN2C(=O)[C@@H](NC(=O)COCCCCC(=O)NCCOc2cc(F)c([C@@H]3c4[nH]c5ccccc5c4C[C@@H](C)N3CC(C)(C)F)c(F)c2)C(C)(C)C)cc1 [Example 142, (2S,4R)-1-((S)-2-(2-((5-((2-(3,5-Difluoro-4-((1R,3R)-2-(2-fluoro-2-methylpropyl)-3-methyl-2,3,4,9-tetrahydro-1H-pyrido[3,4-b]indol-1-yl)phenoxy)ethyl)amino)-5-oxopentyl)oxy)acetamido)-3,3-dimethylbutanoyl)-4-hydroxy-N-(4-(4-methylthiazol-5-yl)benzyl)pyrrolidine-2-carboxamide]",1.1
2,"Cc1ncsc1-c1ccc(CNC(=O)[C@@H]2C[C@@H](O)CN2C(=O)[C@@H](NC(=O)COCCCOCCCCOc2cc(F)c([C@@H]3c4[nH]c5ccccc5c4C[C@@H](C)N3CC(C)(C)F)c(F)c2)C(C)(C)C)cc1 [Example 129, (2S,4R)-1-((S)-2-(2-(3-(4-(3,5-Difluoro-4-((1R,3R)-2-(2-fluoro-2-methylpropyl)-3-methyl-2,3,4,9-tetrahydro-1H-pyrido[3,4-b]indol-1-yl)phenoxy)butoxy)propoxy)acetamido)-3,3-dimethylbutanoyl)-4-hydroxy-N-(4-(4-methylthiazol-5-yl)benzyl)pyrrolidine-2-carboxamide]",1
3,"Cc1ncsc1-c1ccc(CNC(=O)[C@@H]2C[C@@H](O)CN2C(=O)[C@@H](NC(=O)COCCCCCOCCOc2ccc([C@@H]3c4[nH]c5ccccc5c4C[C@@H](C)N3CC(F)F)nc2)C(C)(C)C)cc1 [Example 10, (2S,4R)-1-((S)-2-(2-((5-(2-((6-((1S,3R)-2-(2,2-Difluoroethyl)-3-methyl-2,3,4,9-tetrahydro-1H-pyrido[3,4-b]indol-1-yl)pyridin-3-yl)oxy)ethoxy)pentyl)oxy)acetamido)-3,3-dimethylbutanoyl)-4-hydroxy-N-(4-(4-methylthiazol-5-yl)benzyl)pyrrolidine-2-carboxamide]",39
